Ends that are not written are not given here.
Key:
primary rat hepatocytes = assay: quantitative RT-PCR of mRNA expression in primary rat hepatocytes; assay type: cell-based; details: 18 h; for effect on HMGCR mRNA level / effect on HMGCS1 mRNA level / effect on MVD mRNA level: 5 doses (0.1, 0.3, 1, 10, 100 nM), FIG. 3; for mRNA expression of fatty acid synthase (direction of regulation) / mRNA expression of glucose-6-phosphate catalytic subunit (direction of regulation): FIG. 4
Experimental: Male Wistar rats (˜200 g) were anaesthetized with a freshly prepared mixture (1:1) of Hyp-norn (0.05 mg/ml fentalyl/2.5 mg/ml fluabizone) and Dormicum (1.25 mg/ml midazolam) administered subcutaneously (1 ml/kg). Hepatocytes were isolated from rats fed ad libitum by a two-step perfusion technique essentially as described by Seglen, Biochem. J. (1999) 342 (545-550). Cell viability, assessed by Trypan Blue exclusion, was consistently greater than 80%. Cells were plated on to collagen-coated six-well plates in basal medium (Medium 199, 5.5 mM glucose supplemented 100 nM decadron, 1% penicillin (10,000 U)/streptomycin (10,000 U), and 1 nM insulin) with 4% fetal calf serum at a cell density of 1.2*10^6 cells/well. The medium was replaced 1 h after initial plating in order to remove dead cells. […] Following stimulation for 18 h, the cells were washed twice in PBS and 1.3 ml SV RNA-lysis buffer (Promega, Madison, Wis.) were added to each well.
(§1) Total RNA was isolated and DNase treated using SV96 total RNA isolation system (Promega, Madison, Wis.) following manufacturer's instructions.
(§2) cDNA was prepared from 100 ng of total RNA from each of the treatments (n=3) using random primers and TaqMan® Reverse (Applied Biosystems, Foster City, Calif. (USA)).
(§3) Transcription reagents were used/applied according to the manufacturer's instructions. Quantitative PCR was performed on each of the cDNA samples (10-fold dilutions of cDNA) using TaqMan® PCR core reagents (Applied Biosystems) on an ABI PRISM® 7000 Sequence Detection System (Applied Biosystems). Primers and FAM-labeled-probes for human and rat HMG-CoA reductase (HMGCR), mevalonate (diphospho) decarboxylase (MVD), HMG-CoA synthase 1 (HMGCS1), 18S rRNA, rat fatty acid synthase (FAS), and rat glucose-6-phosphate catalytic subunit (G6PC) were ordered as Assays-on-Demand (Applied Biosystems).
(§4) Probe sequences for these assays were as follows: HMGCR (human AC-[…] (assay Hs00168352_m1) (SEQ ID NO: 34), rat GCAC-[…] (assay Rn00565598_m1) (SEQ ID NO: 35)), MVD (human […] (assay Hs00159403_m1) (SEQ ID NO: 36), rat […] (assay Rn00579216_m1) (SEQ ID NO: 37)), HMGCS1 (human […] (assay Hs00266810_m1) (SEQ ID NO: 38), rat […] (assay Rn00568579_m1) (SEQ ID NO: 39)), 18S rRNA ([…]; assay HS99999901_s1) (SEQ ID NO: 40), FAS (rat […] (assay Rn00569117_m1) (SEQ ID NO: 41)), and G6PC (rat […] (assay Rn00565347_m1) (SEQ ID NO: 42)). Data were analyzed using ABI Prism 7000 SDS software (version 1.0; Applied Biosystems), and expression levels for HMGCR, MVD, HMGCS1, FAS, and were normalized to the 18S rRNA levels.

human SGBS adipocytes = assay: cDNA microarray analysis of total RNA from SGBS adipocytes treated with S597 or human insulin; assay type: cell-based; details: 30 nM, 18 hours, vs vehicle
Experimental: To compare the transcriptional effects of human insulin (HI) and an exemplary IRBP, IRBP S597, cDNA microarray analyses were performed on total RNA from human SGBS adipocytes treated with S597 (30 nM) or human insulin (30 nM) for 18 hours. The microarray hybridizations were carried out as dual color (Cy3/Cy5) hybridizations comparing vehicle treatments to insulin or S597 treatments. Three individual RNA samples from vehicle, S597, and insulin treated cells were compared, and all hybridizations were repeated with reversed dye combination (e.g. vehicle (Cy3) vs. S597 (Cy5) repeated as vehicle (Cy5) vs. S597 (Cy3)). The specific steps employed in this experimental analysis of the effects of HI versus IRBP S597 are described in the following paragraphs.
(§5) A human preadipocyte cell strain derived from subcutaneous adipose tissue of an infant with Simpson-Golabi-Behmel syndrome (SGBS) was plated out in 6 well plates and grown to confluence in DMEM/F12 medium (Gibco) containing 1% biotin, 1% panthothenic acid, 1% penicillin (10000 U)/streptomycin (10000 U), and 10% Fetal bovine serum (Gibco-Invitrogen, Carlsbad Calif. (USA)—“Gibco”). Differentiation of SGBS preadipocytes into adipocytes was induced by adding DMEM/F12 medium (Gibco) containing 1% biotin, 1% panthothenic acid, 1% penicillin (10,000 U)/streptomycin (10,000 U), 100 nM cortisol, […] triiodothyronine, 20 nM insulin, 250 nM dexamethasone (first 6 days), 500 μM IBMX (first 6 days), 2 μM rosiglitazone (first 3 days) and letting cells differentiate for 14 days.
(§6) Before stimulation with insulin and IRBP S597 the differentiated adipocytes were cultured in DMEM/F12 medium (Gibco) containing 1% biotin, 1% panthothenic acid, 1% penicillin (10,000 U)/streptomycin (10,000 U), 100 nM cortisol, and […] triiodothyronine for 2 days. Insulin and S597 (1, 3, 10, 30, 100 nM) were separately added to cells in DMEM/F12 medium (Gibco) containing 1% biotin, 1% panthothenic acid, 1% penicillin (10,000 U)/streptomycin (10,000 U), 100 nM cortisol, 200 pM triiodothyronine, and 0.1% BSA. Following stimulation for 18 h (18 hours), the cells were washed twice in PBS and 1.3 ml SV RNA-lysis buffer (Promega, Madison, Wis.) was added to each well.
as §1
Incyte Easy-To-Spot™ PCR-products (ETS1220 comprising ˜9000 human clones) (Amersham Biosciences) dissolved in 50% DMSO were spotted on to Corning Ultra Gaps slides (Corning Inc., Corning, N.Y.) at 55% relative humidity using the Molecular Dynamics Gen. III microarray spotter (Amersham Biosciences, Buckinghamshire, UK). All slides were baked at 80° C. for 4 h. Approximately 250 ng of total RNA from cells treated with vehicle, human insulin (30 nM) and S597 (30 nM) were used for synthesis of complementary RNA (amplified RNA (aRNA)) using Amino-allyl MessageAmp™ aRNA kit (Ambion, Austin, Tex.). Amino-allyl cDNA was synthesized from 1.5 μg of each RNA-amplification. The aRNA was incubated with random primer at 70° C. for 10 min. and subsequently chilled on ice for 30 sec. The primer annealed RNA was incubated with reaction mixture (1× Superscript II buffer (Life Technologies, Taastrup, Denmark), 10 mM DTT, 200 μM dGAT(−TP) 100 μM dCTP, 100 μM Cy-3/Cy-5-dCTP (Amersham Biosciences), and 200 units of Superscript II reverse transcriptase (Life Technologies, Taastrup, Denmark) at 42° C. for 2 h in a final volume of 20 μl. The RNA template was removed by alkaline denaturation (incubation with 2 μl 2.5 M NaOH at 37° C. for 15 min.). Amino-allyl labeled probes were purified using a Qiagen PCR purification kit (Qiagen). The amino-allyl cDNA was resuspended in 0.1 M NaHCO3 pH 9.0 and coupled to Cy3/Cy5 NHS-ester (Amersham Biosciences) for 1 h at RT in the dark. Unreacted ester groups were quenched by addition of hydroxylamine. Cy3- and Cy5-labeled cDNA was purified using Qiagen PCR purification kit (Qiagen). […]

SGBS adipocytes = assay: quantitative RT-PCR of cholesterol biosynthesis genes in SGBS adipocytes; assay type: cell-based, human; details: 18 h; for expression level of HMG-CoA synthase 1 (direction of regulation) / expression level of mevalonate (diphospho) decarboxylase (direction of regulation): quantitative RT-PCR, dose dependent, SGBS adipocytes, FIG. 2
Experimental: as §5, §6, §1, §2, §3, §4

[1] = quantitative RT-PCR, 1, 3, 10, 30, 100 nM, normalized to 18S, FIG. 1

HMG-CoA reductase (HMGCR) gene upregulation (human SGBS adipocytes) [fold]	mevalonate (diphospho) decarboxylase (MVD) gene upregulation (human SGBS adipocytes) [fold]	dose dependant upregulation of HMG-CoA reductase mRNA (SGBS adipocytes; [1]) [fold up]	Substance	effect on HMGCR mRNA level (primary rat hepatocytes)	effect on HMGCS1 mRNA level (primary rat hepatocytes)	effect on MVD mRNA level (primary rat hepatocytes)	mRNA expression of fatty acid synthase (direction of regulation) (primary rat hepatocytes)	mRNA expression of glucose-6-phosphate catalytic subunit (direction of regulation) (primary rat hepatocytes)	HMG-CoA reductase (HMGCR) gene downregulation (human SGBS adipocytes) [fold]	HMG-CoA synthase 1 (HMGCS1) gene downregulation (human SGBS adipocytes) [fold]	mevalonate (diphospho) decarboxylase (MVD) gene downregulation (human SGBS adipocytes) [fold]	dose dependant downregulation of HMG-CoA reductase mRNA (SGBS adipocytes; [1]) [fold down]	expression level of HMG-CoA synthase 1 (direction of regulation) (SGBS adipocytes)	expression level of mevalonate (diphospho) decarboxylase (direction of regulation) (SGBS adipocytes)	HMG-CoA synthase 1 (HMGCS1) gene upregulation (human SGBS adipocytes) [fold]
			Ac-SLEEEWAQIECEVYGRGCPSESFYDWFERQL (cysteine pairing not given here) [S597]	no significant changes	no significant changes	no significant changes	upregulation	downregulation	2.1	1.4	2.5	~2	downregulated	downregulated	
2.3	2.1	~3	human insulin	clear upregulating effect	clear upregulating effect	clear upregulating effect	upregulation	downregulation					upregulated	upregulated	2.0
